Measured values reported in article PMC7413254 (Nature Communications, 2020).

Experiments:
Type in all cases: cell-based
PfCRT^Ecu1110 [1] = molecular target: T1, PfCRT^Ecu1110 (Plasmodium falciparum, UniProt Q9N623, A220S/I356L/K76T/N326D); test: cell-based; conditions: for PfCRT-mediated [3H]CQ transport, trans-stimulation (% PfCRTEcu1110 control): PfCRTEcu1110 oocytes, normalised to oocyte type control; for [3H]CQ transport (% PfCRTDd2 control), trans-stimulation, PfCRTEcu1110: PfCRT-mediated component (background subtracted), sheet title says normalised to PfCRTDd2 control, mean ± SEM, SEM
Outline: (§1)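 Oocytes (ten per treatment, ≥4 independent frogs/days) were preloaded by injecting VF-6 in 25 nL ND96 at pH 5.0, 5.5, 6.0 or 7.0, or Na^+-free choline buffer, then uptake run 1.5 h, 27.5 °C, ND96 pH 5.5 by default. Internal concentrations assumed ~400 nL oocyte volume.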

PfCRT^3D7 = PfCRT^3D7 (Plasmodium falciparum, UniProt Q8IBZ9); test: cell-based; conditions: for PfCRT-mediated [3H]CQ transport, trans-stimulation (% PfCRT3D7 control): PfCRT3D7 oocytes, normalised to oocyte type control
Outline: as §1

PfCRT^Dd2 [2] = molecular target: T2, PfCRT^Dd2 (Plasmodium falciparum, UniProt Q9N623, A220S/I356T/K76T/M74I/N326S/N75E/Q271E/R371I); test: cell-based; conditions: for PfCRT-mediated [3H]CQ transport, trans-stimulation (% PfCRTDd2 control): PfCRTDd2 oocytes, normalised to oocyte type control; for [3H]CQ transport (% PfCRTDd2 control), trans-stimulation, PfCRTDd2: PfCRT-mediated component (background subtracted), mean ± SEM, SEM
Outline: as §1

PfCRT^Ecu1110 [3] = molecular target: T1, PfCRT^Ecu1110; test: [3H]CQ uptake into Xenopus oocytes, cis-inhibition by unlabelled solute; conditions: for PfCRT-mediated [3H]CQ transport, cis-inhibition (% PfCRTEcu1110 control): PfCRTEcu1110 oocytes, background [3H]CQ accumulation subtracted, normalised to oocyte type control; for [3H]CQ transport (% PfCRTEcu1110 control), cis-inhibition, PfCRTEcu1110: PfCRT-mediated component (background subtracted), sheet title says normalised to PfCRTDd2 control, mean ± SEM, SEM
Outline: (§2)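 Each treatment used ten oocytes, repeated in at least four experiments on different days with oocytes from different frogs. Conditions: ND96 pH 5.5, 27.5 °C, 1.5 h; read-out by scintillation counting.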

PfCRT^Dd2 [4] = molecular target: T2, PfCRT^Dd2; test: as above; conditions: PfCRTDd2 oocytes, background [3H]CQ accumulation subtracted, normalised to oocyte type control
Outline: as §2

[5] = [test solute]i = 5 mM (intracellular)
[6] = [test solute]i = 45 mM (intracellular; 30 mM for some solutes due to solubility)
[7] = [test solute]i = 5 mM (injected)
[8] = [test solute]i = 45 mM (30 mM for some solutes due to solubility)

T2 sequence (Q9N623 whole entry A220S/I356T/K76T/M74I/N326S/N75E/Q271E/R371I): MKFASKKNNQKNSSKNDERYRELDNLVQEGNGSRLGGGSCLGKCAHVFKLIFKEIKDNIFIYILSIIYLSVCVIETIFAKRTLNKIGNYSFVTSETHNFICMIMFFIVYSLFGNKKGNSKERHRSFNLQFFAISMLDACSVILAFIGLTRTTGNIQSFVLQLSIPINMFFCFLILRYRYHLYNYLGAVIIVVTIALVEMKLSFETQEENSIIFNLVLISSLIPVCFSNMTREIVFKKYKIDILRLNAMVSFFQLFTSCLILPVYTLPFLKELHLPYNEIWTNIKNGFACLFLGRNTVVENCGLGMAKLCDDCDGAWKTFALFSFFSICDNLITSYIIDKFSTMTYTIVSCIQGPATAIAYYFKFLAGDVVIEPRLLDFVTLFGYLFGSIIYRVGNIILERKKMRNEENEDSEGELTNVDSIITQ
Chain of PfCRT^3D7 (Q8IBZ9 59-398): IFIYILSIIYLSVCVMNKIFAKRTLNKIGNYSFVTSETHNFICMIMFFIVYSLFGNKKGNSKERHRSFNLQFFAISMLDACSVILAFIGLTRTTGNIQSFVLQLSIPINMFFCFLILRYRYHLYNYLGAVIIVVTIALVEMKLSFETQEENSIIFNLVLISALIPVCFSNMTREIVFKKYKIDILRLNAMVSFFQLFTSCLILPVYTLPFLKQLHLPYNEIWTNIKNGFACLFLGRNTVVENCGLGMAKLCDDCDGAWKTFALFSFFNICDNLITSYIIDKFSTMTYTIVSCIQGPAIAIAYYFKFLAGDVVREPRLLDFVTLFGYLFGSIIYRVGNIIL
T1 sequence (Q9N623 whole entry A220S/I356L/K76T/N326D): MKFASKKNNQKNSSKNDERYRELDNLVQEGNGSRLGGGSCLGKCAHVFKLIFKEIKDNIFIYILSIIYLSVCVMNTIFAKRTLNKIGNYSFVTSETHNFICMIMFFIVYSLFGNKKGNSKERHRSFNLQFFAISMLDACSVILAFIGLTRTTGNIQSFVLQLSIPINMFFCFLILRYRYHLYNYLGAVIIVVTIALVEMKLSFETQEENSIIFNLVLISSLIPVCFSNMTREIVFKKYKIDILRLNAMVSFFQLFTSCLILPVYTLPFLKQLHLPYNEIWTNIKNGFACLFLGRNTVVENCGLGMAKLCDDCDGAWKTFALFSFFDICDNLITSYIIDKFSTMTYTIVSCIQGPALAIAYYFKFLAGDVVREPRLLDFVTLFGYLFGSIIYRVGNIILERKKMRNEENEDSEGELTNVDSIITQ

Row | Substance | PfCRT-mediated [3H]CQ transport, trans-stimulation (% PfCRTEcu1110 control) (PfCRT^Ecu1110 [1]; [5]) | PfCRT-mediated [3H]CQ transport, trans-stimulation (% PfCRTEcu1110 control) (PfCRT^Ecu1110 [1]; [6]) | [3H]CQ transport (% PfCRTDd2 control), trans-stimulation, PfCRTEcu1110 (PfCRT^Ecu1110 [1]; [7]) [% PfCRTEcu1110 control] | [3H]CQ transport (% PfCRTDd2 control), trans-stimulation, PfCRTEcu1110 (PfCRT^Ecu1110 [1]; [8]) [% PfCRTEcu1110 control] | PfCRT-mediated [3H]CQ transport, trans-stimulation (% PfCRT3D7 control) (PfCRT^3D7; [5]) | PfCRT-mediated [3H]CQ transport, trans-stimulation (% PfCRT3D7 control) (PfCRT^3D7; [6]) | PfCRT-mediated [3H]CQ transport, trans-stimulation (% PfCRTDd2 control) (PfCRT^Dd2 [2]; [5]) | PfCRT-mediated [3H]CQ transport, trans-stimulation (% PfCRTDd2 control) (PfCRT^Dd2 [2]; [6]) | [3H]CQ transport (% PfCRTDd2 control), trans-stimulation, PfCRTDd2 (PfCRT^Dd2 [2]; [7]) [% PfCRTDd2 control] | [3H]CQ transport (% PfCRTDd2 control), trans-stimulation, PfCRTDd2 (PfCRT^Dd2 [2]; [8]) [% PfCRTDd2 control] | PfCRT-mediated [3H]CQ transport, cis-inhibition (% PfCRTEcu1110 control) (PfCRT^Ecu1110 [3]; [test solute] = 0.5 mM) | PfCRT-mediated [3H]CQ transport, cis-inhibition (% PfCRTEcu1110 control) (PfCRT^Ecu1110 [3]; [test solute] = 1 mM) | PfCRT-mediated [3H]CQ transport, cis-inhibition (% PfCRTEcu1110 control) (PfCRT^Ecu1110 [3]; [test solute] = 2 mM) | [3H]CQ transport (% PfCRTEcu1110 control), cis-inhibition, PfCRTEcu1110 (PfCRT^Ecu1110 [3]; [test solute] = 0.5 mM) [% PfCRTEcu1110 control] | [3H]CQ transport (% PfCRTEcu1110 control), cis-inhibition, PfCRTEcu1110 (PfCRT^Ecu1110 [3]; [test solute] = 1 mM) [% PfCRTEcu1110 control] | [3H]CQ transport (% PfCRTEcu1110 control), cis-inhibition, PfCRTEcu1110 (PfCRT^Ecu1110 [3]; [test solute] = 2 mM) [% PfCRTEcu1110 control] | PfCRT-mediated [3H]CQ transport, cis-inhibition (% PfCRTDd2 control) (PfCRT^Dd2 [4]; [test solute] = 0.5 mM) | PfCRT-mediated [3H]CQ transport, cis-inhibition (% PfCRTDd2 control) (PfCRT^Dd2 [4]; [test solute] = 1 mM) | PfCRT-mediated [3H]CQ transport, cis-inhibition (% PfCRTDd2 control) (PfCRT^Dd2 [4]; [test solute] = 2 mM) | [3H]CQ transport (% PfCRT3D7 control), trans-stimulation, PfCRT3D7 (PfCRT^3D7; SEM)
1 | LDNLK [LK-5] | 97 ± 4.2 | 136 ± 5.1 | 29 ± 1.4 | 41 ± 2.1 | 127 ± 4.2 | 180 ± 7.2 | 100 ± 1.3 | 94 ± 3.2 | 100 ± 1.3 | 94 ± 3.2 | 40 ± 1.4 | 30 ± 1.9 | 21 ± 1.9 | 13 ± 0.1 | 9.0 ± 0.03 | 7.0 ± 0.03 | 31 ± 1.4 | 21 ± 1.9 | 13 ± 0.7 | 
2 | LHVDPENF [LF-8] | 96 ± 2.1 | 95 ± 3.2 |  |  | 97 ± 2.2 | 98 ± 4.2 | 99 ± 3.1 | 98 ± 2.3 |  |  | 31 ± 1.1 | 22 ± 2.0 | 11 ± 0.1 |  |  |  | 37 ± 2.0 | 21 ± 0.5 | 11 ± 0.2 | 
3 | LSDLHAHK [LK-8] | 97 ± 1.4 | 98 ± 3.4 |  |  | 98 ± 3.4 | 96 ± 1.3 | 98 ± 3.3 | 97 ± 3.1 |  |  | 62 ± 3.1 | 48 ± 2.2 | 39 ± 2.4 |  |  |  | 55 ± 2.3 | 51 ± 0.1 | 25 ± 0.3 | 
4 | LSFPTTK [LK-7] | 97 ± 3.3 | 93 ± 3.7 | 29 ± 1.6 | 29 ± 1.8 | 93 ± 3.2 | 94 ± 3.6 | 98 ± 4.3 | 95 ± 3.3 | 98 ± 4.3 | 95 ± 3.3 | 47 ± 1.1 | 33 ± 2.4 | 17 ± 0.4 | 15 ± 0.1 | 10 ± 0.4 | 5.0 ± 0.05 | 48 ± 2.6 | 37 ± 1.7 | 18 ± 0.7 | 0.1 ± 0.01
5 | PHFDLS [PS-6] | 121 ± 4.5 | 138 ± 4.6 | 37 ± 1.4 | 43 ± 1.3 | 140 ± 4.3 | 188 ± 4.5 | 96 ± 4.7 | 95 ± 4.6 | 96 ± 4.7 | 95 ± 4.6 | 41 ± 2.5 | 33 ± 1.7 | 21 ± 1.6 |  |  | 7.0 ± 0.01 | 46 ± 1.0 | 32 ± 1.1 | 17 ± 0.3 | 
